Measured values reported in US11632954B2, “Polymorphs of 5-fluoro-4-imino-3-methyl-1 -tosyl-3,4-dihydropyrimidin-2-one” (ADAMA MAKHTESHIM LTD., priority 2017, dated 2023).

Legend:
Type in all cases: physicochemical
[1] = TG-FTIR thermogram, beginning of decomposition; settings: N2 atmosphere; 10° C./min, 25 to 300° C.
Procedure: FT-Raman Spectroscopy: Bruker Multi-RAM with OPUS 6.5 software; Nd:YAG 1064-nm excitation, Ge detector, 3500-50 cm-1 range; typical measurement conditions: 300 mW nominal laser power, 64 scans, 2 cm-1 resolution; samples pressed into the cavity of aluminum sample holders TG-FTIR: Netzsch Thermo-Microbalance TG 209 with Bruker FT-IR Spectrometer Vector 22; aluminum crucible (with microhole); N2 atmosphere; 10° C./min heating rate, from 25 to 300° C.

[2] = Solid-state hygroscopicity / stability against hydration
[3] = Critical water activity: seeded suspension equilibration of Hydrate vs anhydrous Forms I and II in 2-PrOH/water and THF/water; settings: for Result (XRPD): analyzed wet
Procedure: The critical water activity between the Hydrate and anhydrous Forms I and II was attempted to be determined at room temperature in 2-PrOH/water and THF/water mixtures. […] After two additional days of stirring at RT, the solid was separated from the liquid by centrifuge filtering.
In order to clarify the root cause of the surprising results regarding the critical water activities, three further experiments were performed. The slurries at water activities of 0.5 and 0.7 were repeated using freshly prepared solvent mixtures and the suspension equilibration at a water activity of 0.7 was also performed in 2-PrOH/water mixture. The formation of thick suspension in 2-PrOH/water mixtures was experienced again; the initially obtained thick suspension turned into a well-stirred slurry upon one day of stirring. Then it was seeded with the three forms and the solid was isolated after additional two days of stirring.

[4] = Relative thermodynamic stability of Forms I and II: competitive slurry experiments; settings: for Result (XRPD): seeded with Form I + Form II after 4 h, analyzed wet
Procedure: (§1) The relative thermodynamic stability of the polymorphs was determined by slurry experiments at RT and 5° C. […] The stability was further investigated at 5° C. and in addition, another experiment was performed at MEK at RT. MEK was chosen as suspending media because that was the only solvent where Form II was formed when slurrying the starting material. […] The experiment at 5° C. in TBME was actually carried out only as a control.

[5] = Dehydration of the Hydrate, DSC in an open pan
Procedure: DSC: TA Instruments DSC Q2000; hermetically closed gold crucible; N2 atmosphere; 10° C./min heating rate, from 20 to 190° C. The melting point is understood as the peak onset.
1) Measuring by DSC in an open pan, the water of crystallization evaporates in the temperature range of 20-100° C. Then a sharp endothermic event due to melting follows in the thermogram at 159° C. (FIG. 10).

[6] = Solvate formation in suspension crystallization at RT
Procedure: (§2) 1) About 100 mg of 5-fluoro-4-imino-3-methyl-1-tosyl-3,4-dihydropyrimidin-2(1H)-one was suspended in 1.0 ml of 2-PrOH previously dried over 4 Å molecular sieves and the suspension was stirred for 11 d at RT and filtered through a 0.2-μm PTFE centrifuge filter and analyzed without drying, or dried in dry N2 stream at RT for 1 h.
as §2, with “2)” for “1)”, “tert-butyl methyl ether (TBME)” for “2-PrOH”, “RT,” for “RT and”, “drying.” for “drying, or dried in dry N2 stream at RT for 1 h.”
3) About 100 mg of 5-fluoro-4-imino-3-methyl-1-tosyl-3,4-dihydropyrimidin-2(1H)-one was suspended in 1.0 ml of toluene previously dried over 4 Å molecular sieves and the suspension was stirred for 11 d at RT, filtered through a 0.2-μm PTFE centrifuge filter and analyzed without drying.
Form II was prepared by suspension crystallization. About 120 mg of 5-fluoro-4-imino-3-methyl-1-tosyl-3,4-dihydropyrimidin-2(1H)-one was suspended in 0.8 ml of methyl ethyl ketone (MEK) previously dried over 4 Å molecular sieves and the suspension was stirred for 11 d at room temperature and filtered through a 0.2-μm PTFE centrifuge filter. The solid was allowed to dry under ambient conditions for 1 d.

[7] = Solubility in suspending medium; settings: in MEK
Procedure: as §1

Q: For `Cc1ccc(S(=O)(=O)n2cc(F)c(=N)n(C)c2=O)cc1` [Form I, 5-fluoro-4-imino-3-methyl-1-tosyl-3,4-dihydropyrimidin-2(1H)-one], which “decomposition beginning at a temperature (TG-FTIR)” value (from here on “decomposition beginning”) [1] is on record?
A: greater than 210 °C

Q: And the hygroscopicity [2]?
A: non-hygroscopic

Q: And the “kinetic stability against hydration” value ([2]; at higher relative humidity)?
A: high kinetic stability against hydration

Q: And the “relative thermodynamic stability among the three forms suspended” value ([3]; water activity of 0.3 and below, RT)?
A: thermodynamically most stable

Q: And the “thermodynamic stability vs the hydrate form” value ([3]; water activity of 0.3 or less at room temperature)?
A: thermodynamically more stable than the hydrate form

Q: And the “relative stability vs Form II in competitive slurry” value ([4]; TBME at 5° C.)?
A: unequivocally more stable than Form II

Q: What about the “thermodynamic stability vs polymorph Form II” value ([4]; at 5° C. and above) of the same compound?
A: thermodynamically more stable than polymorph Form II

Q: And the “relative thermodynamic stability vs Form II” value ([4]; water activities of 0.1 and 0.3, RT)?
A: more stable

Q: What does the source list for `Cc1ccc(S(=O)(=O)n2cc(F)c(=N)n(C)c2=O)cc1` [Form II, 5-fluoro-4-imino-3-methyl-1-tosyl-3,4-dihydropyrimidin-2(1H)-one]?
A: decomposition beginning at a temperature (TG-FTIR) [1]: greater than 210 °C; relative thermodynamic stability among the three forms suspended ([3]; water activity of 0.7, RT (Table 1), patent assumes this finding untrue): more stable

Q: For `Cc1ccc(S(=O)(=O)n2cc(F)c(=N)n(C)c2=O)cc1` [Form S1, 5-fluoro-4-imino-3-methyl-1-tosyl-3,4-dihydropyrimidin-2(1H)-one], which “decomposition beginning” value [1] is on record?
A: greater than 200 °C

Q: With `Cc1ccc(S(=O)(=O)n2cc(F)c(=N)n(C)c2=O)cc1` [Form S5, 5-fluoro-4-imino-3-methyl-1-tosyl-3,4-dihydropyrimidin-2(1H)-one] as the compound, how does the “decomposition beginning” value [1] read?
A: greater than 180 °C

Q: For `Cc1ccc(S(=O)(=O)n2cc(F)c(=N)n(C)c2=O)cc1` [Form S8, 5-fluoro-4-imino-3-methyl-1-tosyl-3,4-dihydropyrimidin-2(1H)-one], which “decomposition beginning” value [1] is on record?
A: greater than 180 °C

Q: For `Cc1ccc(S(=O)(=O)n2cc(F)c(=N)n(C)c2=O)cc1` [Hydrate, 5-fluoro-4-imino-3-methyl-1-tosyl-3,4-dihydropyrimidin-2(1H)-one], which “decomposition beginning” value [1] is on record?
A: greater than 190 °C

Q: And the “relative thermodynamic stability among the three forms suspended” value ([3]; water activity of 0.5 and 0.9, RT (Table 1))?
A: more stable

Q: What about the “relative stability vs Form I and Form II (ultimate finding)” value ([3]; water activity of 0.5 and higher at RT) of the same compound?
A: more stable than the two anhydrous forms

Q: What about the “temperature range in which the water of crystallization evaporates” value [5] of the same compound?
A: 20-100 °C

Q: What about the “form resulting from dehydration” value ([5]; melting at 159° C. coincides with Form I) of the same compound?
A: anhydrous Form I

Q: With `Cc1ccc(S(=O)(=O)n2cc(F)c(=N)n(C)c2=O)cc1` [PP539-P1, 5-fluoro-4-imino-3-methyl-1-tosyl-3,4-dihydropyrimidin-2(1H)-one] as the compound, how does the “Result (XRPD)” value ([3]; 2PrOH/water = 89.6/10.4, aw 0.7, seeded with HH + Form I + Form II after 1 d) read?
A: HH″ + traces

Q: What about the “Result (XRPD)” value ([3]; 2PrOH/water = 94.7/5.3, aw 0.5, RT, seeded with HH + Form I + Form II after 3 d) of the same compound?
A: HH′

Q: And the “Result (XRPD)” value ([3]; 2PrOH/water = 97.5/2.5, aw 0.3, RT, seeded with HH + Form I + Form II after 3 d)?
A: Form I

Q: What about the “Result (XRPD)” value ([3]; 2PrOH/water = 99.3/0.7, aw 0.1, RT, seeded with HH + Form I + Form II after 3 d, 2 d more stirring) of the same compound?
A: Form I

Q: What about the “Result (XRPD)” value ([3]; THF/water = 79.7/21.3, aw 0.9, RT, seeded with HH + Form I + Form II after 3 d) of the same compound?
A: HH″

Q: What about the “Result (XRPD)” value ([3]; THF/water = 96.4/3.6, aw 0.7, RT, seeded with HH + Form I + Form II after 3 d) of the same compound?
A: Form II

Q: What about the “Result (XRPD)” value ([3]; repeat, fresh solvent, 2PrOH/water = 94.7/5.3, aw 0.5, seeded with HH + Form I + Form II after 1 d) of the same compound?
A: HH″ + some

Q: And the “Result (XRPD)” value ([3]; repeat, fresh solvent, THF/water = 96.4/3.6, aw 0.7, seeded with HH + Form I + Form II after 1 d)?
A: HH′

Q: What about the “formation of thermodynamically stable solvates” value ([6]; with MEK at RT, Form II formed) of the same compound?
A: does not form thermodynamically stable solvates

Q: And the “formation of thermodynamically stable solvates” value ([6]; with toluene, 2-PrOH and TBME at RT, Form I formed)?
A: does not form thermodynamically stable solvates

Q: What about the “Result (XRPD)” value ([4]; MEK (dry), 5° C.) of the same compound?
A: Form S9 + Form I

Q: And the “Result (XRPD)” value ([4]; MEK (dry), 22° C.)?
A: Form I + Form II

Q: What about the “Result (XRPD)” value ([4]; TBME (dry), 5° C.) of the same compound?
A: Form I

Q: And the solubility [7]?
A: rather high
